According to US12721857B2 (priority 2021, dated 2026):
Like-named read-outs stand apart in the source and are kept apart here.

Experiments:
[1] = target: acetylcholinesterase (AChE) (Homo sapiens, UniProt P22303); assay: In vitro acetylcholinesterase activity assay; format: biochemical
Description: In the AChE assay, a reaction mixture containing DCB was incubated at 20° C. in the dark for 10 min, and 10 μL of AChE solution was then added. For measuring in vitro AChE activity, the test solutions contained DCB at various concentrations, including 5, 25, 50, 100, 200, and 400 µg/mL (FIGS. 13A and 13B). After AChE was added, the reaction mixture was incubated at 20° C. for 10 min, and the absorbance was measured at 405 nm.

Candida albicans = assay: Agar disk diffusion on urine cultures, Candida albicans; format: cell-based
Source text: (§1) Agar disk diffusion testing was used for antimicrobial susceptibility testing. The test provides qualitative results by categorizing susceptible, intermediate or resistant bacteria. Agar disk diffusion testing cannot distinguish bactericidal and bacteriostatic effects. Moreover, the agar disk-diffusion method is not appropriate to determine the minimum inhibitory concentration (MIC), as it is impossible to quantify the amount of the antimicrobial agent diffused into the agar medium. The advantages of this method, mainly simplicity and low cost, have contributed to its common use for the antimicrobial screening of plant extracts, essential oils, and other drugs.
(§2) The study has been performed on 47 urine samples collected from patients diagnosed with urinary tract infection (UTI), before instituting any type of therapy. Several types of pathogens were identified from the urine cultures performed: Escherichia coli-34 cases; Klebsiella pneumoniae-six cases; Proteus mirabilis-one case; Staphylococcus haemolyticus-one case; Enterococcus faecalis-two cases; Candida albicans-three cases. The susceptibility testing of the pathogens has been performed using DCB-impregnated microdisks to identify the optimal value that induces a significant inhibition of microbial culture development, compared to certified antibiotic/antifungal microdisks. The antibiogram/antifungal was performed on the Müller-Hinton (MH)/Sabouraud medium, and the results obtained using DCB-impregnated microdisks are presented in the Table 7, compared to the action of the reference microdisks.

Enterococcus faecalis = assay: Agar disk diffusion on urine cultures, Enterococcus faecalis; format: cell-based
Source text: as §1, §2

[2] = format: in vitro ADME
Source text: FIG. 11 is the in vitro simulation of DCB digestion: stomach (gastric phase, at pH 1.2 and pH 4.5) and duodenum (small intestinal phase, at pH 7.2). (DCB: Chlorogenoborate diester complex);
DCB is protected from acids or/and enzymes in the stomach and small intestine. Chlorogenic acids are, generally, resistant to acid environment and digestive enzymes. […] The DCB complex is dissociated in the colon by borate group transfer to cis-diol sugars, e.g., fructose and sialic acid, in bacteria in the microbiome in the gut mucus membrane. The sugar/borate complexes have a high association constant. […] At a gastric pH of 1.2, DCB undergoes about 50% degradation. When there is food in the stomach, after a meal, the stomach pH can raise to as high as 4-5. Under conditions prevailing after a meal (pH 4.5), DCB undergoes <6% degradation. Under conditions prevailing in the intestines (pH 7.2), DCB undergoes <4% degradation. Thus, when administered with a meal, DCB is protected in the gastrointestinal tract and works as a classical prebiotic. Alternatively, DCB may be administered in a dosage form with an enteric coating which is stable and protects DCB from stomach acids, but which dissolves or breaks down at pH values in the intestines. Suitable enteric polymers include methyl (meth)acrylate-(meth)acrylic acid copolymers, cellulose acetate phthalate (CAP), cellulose acetate succinate, hydroxypropyl methyl cellulose phthalate, hydroxypropyl methyl cellulose acetate succinate, polyvinyl acetate phthalate, and similar polymers.

Proteus mirabilis = assay: Agar disk diffusion on urine cultures, Proteus mirabilis; format: cell-based
Source text: as §1, §2

[3] = system: Staphylococcus haemolyticus; assay: Agar disk diffusion on urine cultures, Staphylococcus haemolyticus; format: cell-based
Source text: as §1, §2

[4] = In vivo DCB toxicity (acute, subchronic, chronic); parameters: species or system mice; settings: both sexes, BALB/c, mouse, in vivo, po; acute, p.o. administration in mice; read-out: median lethal dose (LD50)
Description: (§3) In vivo DCB toxicity: The laboratory animals and the experimental protocol for determining acute, subchronic and chronic toxicity were established in accordance with the Organization for Economic Co-operation and Development (OECD) Guidelines for Testing of Chemicals. The toxicodynamic experiment was performed on groups of 10 BALB/c mice, eight weeks old, with an average weight of 25 g, the number of females and males being equally distributed (five for each group), which were administered different doses of DCB, at various intervals, as follows: • (i) for the acute experiment (at 24 hours): • (a) per os (p.o.), by oral gavage, five different doses of DCB in distilled water: 5 mg/kg body weight (b.w.), 50 mg/kg b.w., 300 mg/kg b.w., 2000 mg/kg b.w. and 5000 mg/kg b.w.; • (b) intra-peritoneal (i.p), a single dose of DCB, in saline: 50 mg/kg b.w.; • (ii) for the subacute experiment (lasting 28 days), three different daily doses of DCB in drinking water: 50 mg/kg b.w., 300 mg/kg b.w. and 1000 mg/kg b.w.; • (iii) for the chronic experiment (lasting 90 days), three different daily doses of DCB in drinking water: 50 mg/kg b.w., 300 mg/kg b.w. and 1000 mg/kg b.w. Throughout the duration of the experiment, the condition of the animals was monitored daily, at the same hour every day (during morning). Also, the animals were maintained in standard conditions of temperature, humidity, and lighting. Food and water were administered ad libitum. Standard Conditions Include: • A 14-hour light/10-hour dark cycle or 12 light/12 dark cycle; • A temperature of 65-75° F. (~18-23° C.); and • A humidity of 40-60%.
(§4) The control mice were monitored and maintained under the same conditions, only that instead of the DCB they received: • (i) for the acute experiment: (a) distilled water, p.o., by oral gavage and (b) saline, i.p., respectively; • (ii) for the subacute experiment and for the chronic one: only the drinking water normally consumed. […]

BALB/c mice = assay: In vivo DCB toxicity (acute, subchronic, chronic)
Description: as §3, §4

Klebsiella pneumoniae = assay: Agar disk diffusion on urine cultures, Klebsiella pneumoniae; format: cell-based
Source text: as §1, §2

DPPH scavenging assay = format: biochemical
[5] = system: pathogens identified from urine cultures of patients with urinary tract infection; assay: Antibiotic/antifungal screening on urine cultures, all pathogens together; format: cell-based
Source text: as §1
as §2, with “The antibiogram/antifungal was performed on the Müller-Hinton (MH)/Sabouraud medium, and the results obtained using DCB-impregnated microdisks are presented in the Table 7, compared to the action of the reference microdisks.” left out

Escherichia coli = assay: Agar disk diffusion on urine cultures, Escherichia coli; format: cell-based
Source text: as §1, §2

L929 cells = format: cell-based; settings: mouse, 24 h
Description: In vitro DCB cytotoxicity: The viability of L929 cells treated for 24 hours with different concentrations of DCB was tested by the 3-(4,5-dimethylthiazol-2-yl)-2,5-diphenyltetrazolium bromide (MTT) assay. The MTT assay is commonly used for cytotoxicity, viability, and cell proliferation studies. The treatment of cells with MTT allows the assessment of oxidative metabolism and cellular response to external factors that can have a positive or negative effect on cell survival in culture. This quantitative colorimetric method is based on the reduction of the yellow-colored compound MTT to a dark blue formazan. The reduction of MTT, achieved by mitochondrial enzymes, e.g., succinate dehydrogenase, is directly proportional to the number of viable cells, being an index of cellular/mitochondrial integrity. The optical density is evaluated spectrophotometrically, resulting in a direct relationship between absorbance, dye concentration, and the number of viable and metabolically active cells.
In multi-well plates, L929 cells were plated at a cell concentration of 10^4 cells/cm^2. MTT (1 mg/ml, in a culture medium without serum) and DCB was added to each well. […] The resulting solution was densitometered at 550 nm, there being a direct proportional relationship between the recorded optical density and the number of metabolically active cells.

[6] = oral exposure, within 24-96 hours of ingestion; cited from earlier work

Sequence of acetylcholinesterase (AChE) (P22303 32-614, species assumed): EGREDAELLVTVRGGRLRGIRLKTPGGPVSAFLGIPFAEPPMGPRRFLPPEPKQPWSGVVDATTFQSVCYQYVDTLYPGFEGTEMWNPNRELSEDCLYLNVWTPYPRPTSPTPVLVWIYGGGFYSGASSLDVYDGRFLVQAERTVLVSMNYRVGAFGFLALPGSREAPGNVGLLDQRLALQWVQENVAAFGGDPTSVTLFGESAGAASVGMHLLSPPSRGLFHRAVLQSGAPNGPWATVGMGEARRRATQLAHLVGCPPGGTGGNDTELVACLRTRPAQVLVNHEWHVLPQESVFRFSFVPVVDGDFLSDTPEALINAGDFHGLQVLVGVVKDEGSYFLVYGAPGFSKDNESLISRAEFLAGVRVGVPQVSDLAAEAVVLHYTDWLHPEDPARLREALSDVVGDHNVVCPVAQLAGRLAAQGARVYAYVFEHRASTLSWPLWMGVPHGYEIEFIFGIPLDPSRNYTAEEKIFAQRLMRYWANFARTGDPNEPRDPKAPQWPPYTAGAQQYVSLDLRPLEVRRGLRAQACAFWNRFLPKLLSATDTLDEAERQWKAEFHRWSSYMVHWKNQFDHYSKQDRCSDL

O=C(/C=C/c1ccc(O)c(O)c1)O[C@@H]1C[C@](O)(C(=O)O)C[C@@H](O)[C@H]1O [CA, Chlorogenic acid, reference compound]
IC50 [1]: 243 µM | inhibition at 110 µg/mL ([1]; read-out: inhibition of AChE activity): > 80%

O=C(/C=C/c1ccc2c(c1)O[B-]1(O2)Oc2ccc(/C=C/C(=O)O[C@@H]3C[C@](O)(C(=O)O)C[C@@H](O)[C@H]3O)cc2O1)O[C@H]1C[C@@](O)(C(=O)O)C[C@H](O)[C@@H]1O (stereo partly shown) [DCB, diester chlorogenoborate]
pKa (physchem): ~4 | Inhibition diameter (Ø, mm] of microbial culture (Candida albicans; 0.025 μM DCB microdisk): 0 mm | Inhibition diameter (Ø, mm] of microbial culture (Candida albicans; 2.5 μM DCB microdisk): 0 mm | Inhibition diameter (Ø, mm] of microbial culture (Candida albicans; 5.0 μM DCB microdisk): 12-18 mm | Inhibition diameter (Ø, mm] of microbial culture (Candida albicans; 50 μM DCB microdisk): 37-40 mm | Inhibition diameter (Ø, mm] of microbial culture (Enterococcus faecalis; 0.025 μM DCB microdisk): 0 mm | Inhibition diameter (Ø, mm] of microbial culture (Enterococcus faecalis; 2.5 μM DCB microdisk): 0 mm | Inhibition diameter (Ø, mm] of microbial culture (Enterococcus faecalis; 5.0 μM DCB microdisk): 12-14 mm | Inhibition diameter (Ø, mm] of microbial culture (Enterococcus faecalis; 50 μM DCB microdisk): 26-29 mm | degradation ([2]; pH 1.2): about 50% | degradation ([2]; pH 4.5): < 6% | degradation ([2]; pH 7.2): < 4% | Inhibition diameter (Ø, mm] of microbial culture (Proteus mirabilis; 0.025 μM DCB microdisk): 0 mm | Inhibition diameter (Ø, mm] of microbial culture (Proteus mirabilis; 2.5 μM DCB microdisk): 0 mm | Inhibition diameter (Ø, mm] of microbial culture (Proteus mirabilis; 5.0 μM DCB microdisk): 15 mm | Inhibition diameter (Ø, mm] of microbial culture (Proteus mirabilis; 50 μM DCB microdisk): 35 mm | Inhibition diameter (Ø, mm] of microbial culture ([3]; 0.025 μM DCB microdisk): 0 mm | Inhibition diameter (Ø, mm] of microbial culture ([3]; 2.5 μM DCB microdisk): 0 mm | Inhibition diameter (Ø, mm] of microbial culture ([3]; 5.0 μM DCB microdisk): 11 mm | Inhibition diameter (Ø, mm] of microbial culture ([3]; 50 μM DCB microdisk): 27 mm | LD50 at 24 h [4]: > 5000 mg/kg | histopathology of internal organs (BALB/c mice; acute (24 hours), subchronic (28 days) and chronic (90 days) experiments): normal aspects were highlighted for all internal organs analyzed | acute toxicity class (OECD) (BALB/c mice; p.o. administration in mice): Category V, practically non-toxic | Inhibition diameter (Ø, mm] of microbial culture (Klebsiella pneumoniae; 0.025 μM DCB microdisk): 0 mm | Inhibition diameter (Ø, mm] of microbial culture (Klebsiella pneumoniae; 2.5 μM DCB microdisk): 5-7 mm | Inhibition diameter (Ø, mm] of microbial culture (Klebsiella pneumoniae; 5.0 μM DCB microdisk): 8-15 mm | Inhibition diameter (Ø, mm] of microbial culture (Klebsiella pneumoniae; 50 μM DCB microdisk): 28-36 mm | antioxidant activity relative to CA (DPPH scavenging assay): approximately six times more antioxidant activity than CA | antimicrobial activity compared with certified microdisks ([5]; 50 μM DCB-impregnated microdisks): comparable to, or superior to, that of the certified microdisks | influence on the growing pathogens ([5]; 0.025 to 2.5 μM DCB): little or no influence on the growing pathogens | IC50 [1]: 39.5 µM | factor of AChE inhibition relative to CA [1]: about 3.4 | Inhibition diameter (Ø, mm] of microbial culture (Escherichia coli; 0.025 μM DCB microdisk): 0 mm | Inhibition diameter (Ø, mm] of microbial culture (Escherichia coli; 2.5 μM DCB microdisk): 6-8 mm | Inhibition diameter (Ø, mm] of microbial culture (Escherichia coli; 5.0 μM DCB microdisk): 8-14 mm | Inhibition diameter (Ø, mm] of microbial culture (Escherichia coli; 50 μM DCB microdisk): 29-37 mm | impact on cell viability compared with 5% aqueous DMSO control (L929 cells): much less impact on MTT concentration, and thus cell viability, than a negative control treated with 5% aqueous DMSO

O=C(O)c1cn(C2CC2)c2cc(N3CCNCC3)c(F)cc2c1=O [Ciprofloxacin, reference compound]
Inhibition diameter (Ø, mm] of microbial culture (Proteus mirabilis; certified microdisk): 33 mm | Inhibition diameter (Ø, mm] of microbial culture (Klebsiella pneumoniae; certified microdisk): 27-34 mm | Inhibition diameter (Ø, mm] of microbial culture (Escherichia coli; certified microdisk): 28-35 mm

OC(Cn1cncn1)(Cn1cncn1)c1ccc(F)cc1F [Fluconazole, reference compound]
Inhibition diameter (Ø, mm] of microbial culture (Candida albicans; certified microdisk): 29-33 mm

CO[C@@]1(NC(=O)Cc2cccs2)C(=O)N2C(C(=O)O)=C(COC(N)=O)CS[C@@H]21 [Cefoxitin, reference compound]
Inhibition diameter (Ø, mm] of microbial culture (Enterococcus faecalis; certified microdisk): 23-26 mm | Inhibition diameter (Ø, mm] of microbial culture ([3]; certified microdisk): 25 mm

OB(O)O [BA, Boric acid]
BA absorbed [6]: 81-95%
